# Reference: US12552833B2, “Dynamics within supramolecuar IKVAV matrices enhance functional maturation of human IPSCS-derived neurons and regeneration” (Northwestern University, priority 2019, dated 2026)
# No end group written: not given here. *: point of attachment. Palmitoyl = CCCCCCCCCCCCCCCC(=O)*
# Key:
# human MNs [1] = assay: Patch-electrode recording of action potentials from human MNs grown on A2G2 and laminin matrices; type: cell-based; conditions: MNs grown on A2G2 compared with laminin matrices, day 48-49 (FIG. 4L)
# Experimental: Motor neurons (MN) differentiation: At 70% confluency, iPSC cultures were dissociated using Accutase and plated at a density of 10^5 cells/cm^2 with 10 μM ROCK inhibitor (Y-27632, DNSK International) in mTeSR1. Next day (day 0), media was replaced with N2B27 medium (50% DMEM:F12, 50% Neurobasal, supplemented with NEAA, Glutamax, N2 and B27; Gibco, Life Technologies) containing 10 μM SB431542 (DNSK International), 100 nM LDN-193189 (DNSK International), 1 μM Retinoic Acid (RA, Sigma) and 1 μM of Smoothened-Agonist (SAG, DNSK International). Culture medium was daily changed until day 6, then was switched to N2B27 medium supplemented with 1 μM RA, 1 μM SAG, 5 μM DAPT (DNSK International) and 4 μM SU5402 (DNSK International). Cells were fed daily until day 14, when MNs were dissociated using TrypLE Express (Gibco, Life Technologies) supplemented with DNase I (Worthington) and plated onto pre-coated poly-D-Lysine/laminin or the distinct IKVAV-coated surfaces. MNs were feed 3 times a week with neurobasal medium (NBM: NEAA, Glutamax, N2 and B27) supplemented with Ascorbic acid (0.2 μg/ml; Sigma-Aldrich), BDNF, CNTF and GDNF (10 ng/mL, R&D systems) and 1% fetal bovine serum (FBS).
# human MNs [2] = assay: Tandem mass spectrometry and gene ontology (GO) analysis of proteins differentially expressed in MNs cultured on A2G2 IKVAV PA vs. laminin coated surfaces; type: cell-based; conditions: A2G2 condition vs. laminin; 21 out of the 58 GO terms of Ho et al., 2016 (FIG. 31A)
# Text: FIGS. 31A-31C Assessment of MN maturation through gene ontology (GO) analysis of proteins differentially expressed in MNs cultured on A2G2 IKVAV PA and laminin coated surfaces. Tandem mass spectrometry analysis uncovered differentially expressed proteins between MNs plated on […] surfaces, that are associated with GO terms that have been directly linked to human MN maturation (Ho et al., 2016). (FIG. 31A) From the differentially expressed proteins in A2G2 condition, 21 out of the 58 (36%) GO terms associated with maturation of human MNs were identified. […] Horizontal bar plots display the p-values of the MN maturation related GO terms identified in the protein data set. Pie charts represent the percentage of GO terms obtained in this study compared to the previously described GO terms associated with MN maturation (Ho et al., 2016).
# Motor neurons (MN) differentiation: At 70% confluency, iPSC cultures were dissociated using Accutase and plated at a density of 10^5 cells/cm^2 with 10 μM ROCK inhibitor (Y-27632, DNSK International) in mTeSR1. Next day (day 0), media was replaced with N2B27 medium (50% DMEM:F12, 50% Neurobasal, supplemented with NEAA, Glutamax, N2 and B27; Gibco, Life Technologies) containing 10 μM SB431542 (DNSK International), 100 nM LDN-193189 (DNSK International), 1 μM Retinoic Acid (RA, Sigma) and 1 μM of Smoothened-Agonist (SAG, DNSK International). […]
substance,measurement,setting,value
C16A2G2E4GIKVAV (Palmitoyl-AAGGEEEEGIKVAV) [IKVAV peptide amphiphile with A2G2 structural segment],action potential amplitude,human MNs [1],significantly larger amplitude
same,action potential rates of rise and fall,human MNs [1],faster rates of rise and fall
same,GO terms associated with maturation of human MNs identified from the differentially expressed proteins,human MNs [2],36%
